# In patent US20140134230A1, “TRANSDERMAL THERAPEUTIC SYSTEM” (priority 2005, published 2014):
# Columns and labels:
# [1] = Saturation solubility of rivastigmine free base in the silicone adhesive; format: physicochemical
# [2] = Rivastigmine's biopharmaceutical properties in humans; format: in vivo
# Description: Little has been published in detail on rivastigmine's biopharmaceutical properties in humans. […] It is subject to pre-systemic and systemic metabolism.
compound,measurement,setting,value
CCN(C)C(=O)Oc1cccc([C@H](C)N(C)C)c1 [rivastigmine],saturation solubility in the silicone adhesive,[1],about 5 %-wt.
same,absorption,[2],rapidly and completely absorbed
same,metabolism,[2],metabolised mainly through hydrolysis by esterases
